Values after ≈ are worked out from the molar mass of the structure shown. Read-outs that look alike come from different tables or passages of the source.
Key:
[1] = test system: type 2 virus (strain ROD); assay: in vitro anti-HIV test, median inhibitory concentration on HIV-2; assay type: cell-based; settings: HIV-2 ROD Strain
Protocol: (§1) An apolar extract and a polar extract of Anthostema senegalense were prepared by extraction with dichloromethane and methanol, respectively, from dried stem bark of Anthostema senegalense.
(§2) The efficacy of these extracts against the HIV virus was tested in vitro by measuring the median inhibitory concentration (IC50) of these substances on the type 1 HIV virus (strain IIIB) and on the type 2 virus (strain ROD). Their selectivity index was also measured in each case.
(§3) In order to serve as a control, three known antiretroviral molecules used in the treatment of the infection with HIV: nevirapine, dideoxycitidine and dideoxyinosine were also tested under the same conditions for comparison.

[2] = test system: type 1 HIV virus (strain IIIB); assay: in vitro anti-HIV test, median inhibitory concentration on HIV-1; assay type: cell-based; settings: HIV-1 Strain IIIB
Protocol: as §1, §2, §3

| SMILES | IC50 [1] | IC50 [2] | IC50 ([1]; Human immunodeficiency virus 2, read-out: IC50) | IC50 ([2]; Human immunodeficiency virus 1, read-out: IC50) |
| --- | --- | --- | --- | --- |
| Nc1ccn([C@H]2CC[C@@H](CO)O2)c(=O)n1 [Dideoxycitidine, dideoxycitidine] | 0.30 µg/mL (≈ 1.42 µM) | 0.29 µg/mL (≈ 1.37 µM) |  |  |
| O=c1[nH]cnc2c1ncn2[C@H]1CC[C@@H](CO)O1 [Dideoxyinosine, dideoxyinosine] | 4.59 µg/mL (≈ 19.4 µM) | 2.89 µg/mL (≈ 12.2 µM) |  |  |
| Cc1ccnc2c1NC(=O)c1cccnc1N2C1CC1 [Nevirapine, nevirapine] |  |  | > 4 µg/mL | 0.047 µg/mL (≈ 0.176 µM) |

— patent US10517826B2, “Anthostema senegalense-based composition for use as an anti-AIDS drug” (LABORATOIRE MICHEL IDERNE, priority 2014, dated 2019)
